{"source": "patent US20230365554A1", "about": "“SUBSTITUTED PYRROLO-PYRIDINONE DERIVATIVES AND THERAPEUTIC USES THEREOF” (The Broad Institute, Inc., priority 2020, published 2023)", "key": {"human CSNK1A1": {"biological_target": "human CSNK1A1 (Homo sapiens (Human), UniProt P48729)", "sequence (P48729 whole entry)": "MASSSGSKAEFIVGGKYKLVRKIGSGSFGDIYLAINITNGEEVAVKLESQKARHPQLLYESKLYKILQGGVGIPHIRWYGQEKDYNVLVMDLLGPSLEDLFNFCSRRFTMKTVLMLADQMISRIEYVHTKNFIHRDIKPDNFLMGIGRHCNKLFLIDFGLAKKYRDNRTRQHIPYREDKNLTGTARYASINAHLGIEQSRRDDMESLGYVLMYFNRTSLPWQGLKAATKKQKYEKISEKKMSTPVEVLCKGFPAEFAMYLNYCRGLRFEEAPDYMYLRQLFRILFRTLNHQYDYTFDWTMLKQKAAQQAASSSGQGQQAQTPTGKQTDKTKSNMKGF", "test": "CSNK1A1 Assay 2 (ADP-Glo, 1 μM ATP)", "type": "biochemical", "conditions": "median, Table 2, read-out: CSNK1A1 Assay 2 IC50 [mol/l] (median)", "method_in_brief": "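GST-tagged full-length human CSNK1A1 from insect cells, preincubated 15 min with compound, then reacted 30 min at 22° C with 1 μM ATP and 30 μM biotinylated peptide substrate in pH 7.5 HEPES buffer. ADP measured by ADP-Glo luminescence; normalised to no-inhibitor (0%) and no-enzyme (100%) controls.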"}, "human CSNK1D": {"biological_target": "human CSNK1D (Homo sapiens (Human), UniProt P48730)", "sequence (P48730 whole entry)": "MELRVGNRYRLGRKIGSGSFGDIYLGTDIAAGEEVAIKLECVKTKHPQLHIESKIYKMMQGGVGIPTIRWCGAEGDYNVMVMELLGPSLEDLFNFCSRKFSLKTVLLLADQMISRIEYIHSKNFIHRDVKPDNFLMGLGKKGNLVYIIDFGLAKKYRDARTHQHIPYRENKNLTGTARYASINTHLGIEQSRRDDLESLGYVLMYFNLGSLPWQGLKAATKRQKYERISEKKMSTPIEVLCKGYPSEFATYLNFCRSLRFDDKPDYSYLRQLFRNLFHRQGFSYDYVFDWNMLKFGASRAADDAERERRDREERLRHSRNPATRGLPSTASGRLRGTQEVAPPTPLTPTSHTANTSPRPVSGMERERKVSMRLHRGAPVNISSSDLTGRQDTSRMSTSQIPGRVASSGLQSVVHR", "test": "CSNK1D assay (ADP-Glo, 1 μM ATP)", "type": "biochemical", "conditions": "median, Table 2, read-out: CSNK1D IC50 [mol/l] (median)", "method_in_brief": "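GST-tagged full-length human CSNK1D (baculovirus/insect cell; typically about 0.5 ng/μL) preincubated with compound 15 min, then reacted 30 min at 22 °C with 1 μM ATP and 30 μM biotinylated peptide (final) in HEPES pH 7.5 buffer. ADP quantified by ADP-Glo luminescence; data normalised to no-inhibitor and no-enzyme controls.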"}}, "note": "pIC50: −log10 of the molar value.", "data": [{"smiles": "CC1CN(C)C(=O)c2c1[nH]c(-c1ccnc(NC(=O)Cc3ccc(F)cc3)c1)c2Nc1ccccc1", "note": "(racemic) [Example 6, N-{4-[3-anilino-5,7-dimethyl-4-oxo-4,5,6,7-tetrahydro-1H-pyrrolo[3,2-c]pyridin-2-yl]pyridin-2-yl}-2-(4-fluorophenyl)acetamide]", "values": [{"measurement": "pIC50", "setting": "human CSNK1A1", "value": 8.59}, {"measurement": "pIC50", "setting": "human CSNK1D", "value": 8.19}]}, {"smiles": "Cc1cc2[nH]c(-c3ccnc(NC(=O)C(CC(F)F)c4ccc(F)cc4)c3)c(Nc3ccccc3F)c2c(=O)n1C", "note": "(racemic) [Example 31, 4,4-difluoro-N-{4-[3-(2-fluoroanilino)-5,6-dimethyl-4-oxo-4,5-dihydro-1H-pyrrolo[3,2-c]pyridin-2-yl]pyridin-2-yl}-2-(4-fluorophenyl)butanamide]", "values": [{"measurement": "pIC50", "setting": "human CSNK1A1", "value": 7.51}, {"measurement": "pIC50", "setting": "human CSNK1D", "value": 7.49}]}, {"smiles": "O=C1N[C@@H]2CCC[C@@H]2c2[nH]c(-c3ccnc(NC(=O)C(CC(F)F)c4ccc(F)cc4)c3)c(Nc3ccccc3)c21", "note": "(single isomer, unassigned; (+)) [Example 22, (+)-(2R or S)—N-{4-[cis-3-anilino-4-oxo-1,4,5,5a,6,7,8,8a-octahydrocyclopenta[b]pyrrolo[2,3-d]pyridin-2-yl]pyridin-2-yl}-4,4-difluoro-2-(4-fluorophenyl)butanamide]", "values": [{"measurement": "pIC50", "setting": "human CSNK1A1", "value": 8.27}, {"measurement": "pIC50", "setting": "human CSNK1D", "value": 8.20}]}, {"smiles": "Cn1cc(CC(F)(F)F)c2[nH]c(-c3ccnc(NC(=O)C(CC(F)F)c4ccc(F)cc4)c3)c(Nc3ccccc3)c2c1=O", "note": "(single isomer, unassigned) [Example 37, N-{4-[3-anilino-5-methyl-4-oxo-7-(2,2,2-trifluoroethyl)-4,5-dihydro-1H-pyrrolo[3,2-c]pyridin-2-yl]pyridin-2-yl}-4,4-difluoro-2-(4-fluorophenyl)butanamide]", "values": [{"measurement": "pIC50", "setting": "human CSNK1A1", "value": 7.92}, {"measurement": "pIC50", "setting": "human CSNK1D", "value": 7.82}]}, {"smiles": "CCC1CNC(=O)c2c1[nH]c(-c1ccnc(NC(=O)Cc3ccc(F)cc3)c1)c2Nc1ccccc1", "note": "(single isomer, unassigned) [Example 3, N-{4-[3-anilino-7-ethyl-4-oxo-4,5,6,7-tetrahydro-1H-pyrrolo[3,2-c]pyridin-2-yl]pyridin-2-yl}-2-(4-fluorophenyl)acetamide]", "values": [{"measurement": "pIC50", "setting": "human CSNK1A1", "value": 8.42}, {"measurement": "pIC50", "setting": "human CSNK1D", "value": 8.00}]}, {"smiles": "CN1CC(CC2CC2)c2[nH]c(-c3ccnc(NC(=O)Cc4ccc(F)cc4)c3)c(Nc3ccccc3)c2C1=O", "note": "(single isomer, unassigned) [Example 20, N-{4-[3-anilino-7-(cyclopropylmethyl)-5-methyl-4-oxo-4,5,6,7-tetrahydro-1H-pyrrolo[3,2-c]pyridin-2-yl]pyridin-2-yl}-2-(4-fluorophenyl)acetamide]", "values": [{"measurement": "pIC50", "setting": "human CSNK1A1", "value": 7.77}, {"measurement": "pIC50", "setting": "human CSNK1D", "value": 7.54}]}, {"smiles": "Cc1cn(C)c(=O)c2c(Nc3ccccc3)c(-c3ccnc(NC(=O)C(C)c4ccc(F)cc4)c3)[nH]c12", "note": "(single isomer, unassigned) [Example 41, N-[4-(3-anilino-5,7-dimethyl-4-oxo-4,5-dihydro-1H-pyrrolo[3,2-c]pyridin-2-yl)pyridin-2-yl]-2-(4-fluorophenyl)propanamide]", "values": [{"measurement": "pIC50", "setting": "human CSNK1A1", "value": 7.00}, {"measurement": "pIC50", "setting": "human CSNK1D", "value": 7.06}]}, {"smiles": "O=C1N[C@@H]2CCC[C@@H]2c2[nH]c(-c3ccnc(NC(=O)C(CC(F)F)c4ccc(F)cc4)c3)c(Nc3ccccc3)c21", "note": "(mixture of isomers) [Example 21, (2RS)—N-{4-[cis-3-anilino-4-oxo-1,4,5,5a,6,7,8,8a-octahydrocyclopenta[b]pyrrolo[2,3-d]pyridin-2-yl]pyridin-2-yl}-4,4-difluoro-2-(4-fluorophenyl)butanamide]", "values": [{"measurement": "pIC50", "setting": "human CSNK1A1", "value": 7.96}, {"measurement": "pIC50", "setting": "human CSNK1D", "value": 7.74}]}, {"smiles": "CC1CN(C)C(=O)c2c1[nH]c(-c1ccnc(NC(=O)C(C)c3ccc(F)cc3)c1)c2Nc1ccccc1", "note": "(racemic) [Example 9, N-{4-[(7RS)-3-anilino-5,7-dimethyl-4-oxo-4,5,6,7-tetrahydro-1H-pyrrolo[3,2-c]pyridin-2-yl]pyridin-2-yl}-2-(4-fluorophenyl)propanamide]", "values": [{"measurement": "pIC50", "setting": "human CSNK1A1", "value": 8.25}, {"measurement": "pIC50", "setting": "human CSNK1D", "value": 7.92}]}]}
